Assays:
[1] = target: T1, Cholecystokinin receptor type A (Rattus norvegicus, UniProt P30551); experiment: Binding activity against Cholecystokinin type A receptor from rat pancreas using [125]BH CCK-8s as radioligand.
T1 sequence (P30551 whole entry): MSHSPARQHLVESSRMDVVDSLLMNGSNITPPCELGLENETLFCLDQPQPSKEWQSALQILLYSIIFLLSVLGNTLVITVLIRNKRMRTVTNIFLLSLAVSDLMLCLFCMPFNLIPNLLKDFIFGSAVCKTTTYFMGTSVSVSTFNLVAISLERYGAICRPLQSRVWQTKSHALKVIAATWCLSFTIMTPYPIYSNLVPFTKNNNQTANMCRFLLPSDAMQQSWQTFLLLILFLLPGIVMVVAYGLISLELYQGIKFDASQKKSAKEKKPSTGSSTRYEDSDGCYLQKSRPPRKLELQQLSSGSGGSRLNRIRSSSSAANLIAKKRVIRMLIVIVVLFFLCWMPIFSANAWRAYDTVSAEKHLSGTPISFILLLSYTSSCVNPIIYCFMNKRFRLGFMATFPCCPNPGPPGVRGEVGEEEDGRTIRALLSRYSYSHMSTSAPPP

[2] = Binding activity against Cholecystokinin type B receptor from guinea pig cortex using [125]BH CCK-8s as radioligand.

| Compound | IC50 [1] [nM] | IC50 [2] [nM] |
| --- | --- | --- |
| Cc1cccc(NC(=O)NC2N=C(N3CC4CCC(CC4)C3)c3ccccc3N(C)C2=O)c1 (centres undefined) | 19.9 |  |
| Cc1cccc(NC(=O)N[C@H]2N=C(N3CC4CCC(CC4)C3)c3ccccc3N(C)C2=O)c1 | 6.5 |  |
| Cc1cccc(NC(=O)N[C@@H]2N=C(C3CCCCC3)c3ccccc3N(C)C2=O)c1 |  | 0.28 |
| Cc1cccc(NC(=O)NC2N=C(N3CCCCC3)c3ccccc3N(C)C2=O)c1 (centres undefined) | 17 |  |

Source: ChEMBL document CHEMBL1127663, “High-affinity and potent, water-soluble 5-amino-1,4-benzodiazepine CCKB/gastrin receptor antagonists containing a cationic solubilizing group” (J Med Chem, 1994)
